# Laboratory results as given in patent US20110086759A1, “CHEMICAL COMPOUNDS” (SYNGENTA CROP PROTECTION, INC., priority 2007, published 2011).
# What was measured:
# Format in all cases: in vivo
# [1] = test system: Setaria faberi (SETFA); assay: Pre-emergence biological efficacy, glasshouse pot test; details: 312 h
# Experimental: (§1) Seeds of Alopecurus myosuroides (ALOMY), Setaria faberi (SETFA), Echinochloa crus-galli (ECHCG), Solanum nigrum (SOLNI), Amaranthus retoflexus (AMARE) and Ipomea hederaceae (IPOHE) were sown in standard soil in pots. After cultivation for one day under controlled conditions in a glasshouse (at 24/16° C., day/night; 14 hours light; 65% humidity), the plants were sprayed with an aqueous spray solution derived from the formulation of the technical active ingredient in acetone/water (50:50) solution containing 0.5% Tween 20 (polyoxyethelyene sorbitan monolaurate, CAS RN 9005-64-5) to give a final dose of 1000 or 250 g/ha of test compound.
# (§2) The test plants were then grown under controlled conditions in the glasshouse (at 24/16° C., day/night; 14 hours light; 65% humidity) and watered twice daily. After 13 days the test was evaluated (100=total damage to plant; 0=no damage to plant).
# [2] = test system: Solanum nigrum (SOLNI); assay: as above; details: 312 h
# Experimental: as §1, §2
# [3] = test system: Amaranthus retoflexus (AMARE); assay: as above; details: Amaranthus retroflexus, 312 h
# Experimental: as §1, §2
# [4] = test system: Alopecurus myosuroides (ALOMY); assay: as above; details: 312 h
# Experimental: as §1, §2
# [5] = test system: Ipomea hederaceae (IPOHE); assay: as above; details: Ipomoea hederacea, 312 h
# Experimental: as §1, §2
# [6] = test system: Echinochloa crus-galli (ECHCG); assay: as above; details: 312 h
# Experimental: as §1, §2
# [7] = test system: Setaria faberi (SETFA); assay: Post-emergence biological efficacy, glasshouse pot test; details: 312 h
# Experimental: as §1, with “8 days” for “one day”
# (§3) The test plants were then grown on under controlled conditions in a glasshouse (at 24/16° C., day/night; 14 hours light; 65% humidity) and watered twice daily. After 13 days the test was evaluated (100=total damage to plant; 0=no damage to plant).
# [8] = test system: Solanum nigrum (SOLNI); assay: as above; details: 312 h
# Experimental: as §1, with “8 days” for “one day”
# as §3
# [9] = test system: Amaranthus retoflexus (AMARE); assay: as above; details: Amaranthus retroflexus, 312 h
# Experimental: as §1, with “8 days” for “one day”
# as §3
# [10] = test system: Alopecurus myosuroides (ALOMY); assay: as above; details: 312 h
# Experimental: as §1, with “8 days” for “one day”
# as §3
# [11] = test system: Ipomea hederaceae (IPOHE); assay: as above; details: Ipomoea hederacea, 312 h
# Experimental: as §1, with “8 days” for “one day”
# as §3
# [12] = test system: Echinochloa crus-galli (ECHCG); assay: as above; details: 312 h
# Experimental: as §1, with “8 days” for “one day”
# as §3
# [13] = pre-emergence, rate 1,000 g/ha, evaluated after 13 days (100=total damage to plant; 0=no damage), read-out: Percentage damage caused to weed species, SETFA
# [14] = pre-emergence, rate 1,000 g/ha, evaluated after 13 days (100=total damage to plant; 0=no damage), read-out: Percentage damage caused to weed species, SOLNI
# [15] = pre-emergence, rate 1,000 g/ha, evaluated after 13 days (100=total damage to plant; 0=no damage), read-out: Percentage damage caused to weed species, AMARE
# [16] = pre-emergence, rate 1,000 g/ha, evaluated after 13 days (100=total damage to plant; 0=no damage), read-out: Percentage damage caused to weed species, ALOMY
# [17] = pre-emergence, rate 1,000 g/ha, evaluated after 13 days (100=total damage to plant; 0=no damage), read-out: Percentage damage caused to weed species, IPOHE
# [18] = pre-emergence, rate 1,000 g/ha, evaluated after 13 days (100=total damage to plant; 0=no damage), read-out: Percentage damage caused to weed species, ECHCG
# [19] = Rate 1,000 g/ha, post-emergence spray, evaluated after 13 days (100=total damage to plant; 0=no damage to plant), read-out: Percentage damage caused to weed species, post-emergence, SETFA
# [20] = Rate 1,000 g/ha, post-emergence spray, evaluated after 13 days (100=total damage to plant; 0=no damage to plant), read-out: Percentage damage caused to weed species, post-emergence, SOLNI
# [21] = Rate 1,000 g/ha, post-emergence spray, evaluated after 13 days (100=total damage to plant; 0=no damage to plant), read-out: Percentage damage caused to weed species, post-emergence, AMARE
# [22] = Rate 1,000 g/ha, post-emergence spray, evaluated after 13 days (100=total damage to plant; 0=no damage to plant), read-out: Percentage damage caused to weed species, post-emergence, ALOMY
# [23] = Rate 1,000 g/ha, post-emergence spray, evaluated after 13 days (100=total damage to plant; 0=no damage to plant), read-out: Percentage damage caused to weed species, post-emergence, IPOHE
# [24] = Rate 1,000 g/ha, post-emergence spray, evaluated after 13 days (100=total damage to plant; 0=no damage to plant), read-out: Percentage damage caused to weed species, post-emergence, ECHCG
# [25] = pre-emergence, 1,000 g/ha, evaluated after 13 days (100=total damage; 0=no damage), read-out: Percentage damage SETFA
# [26] = pre-emergence, 1,000 g/ha, evaluated after 13 days (100=total damage; 0=no damage), read-out: Percentage damage SOLNI
# [27] = pre-emergence, 1,000 g/ha, evaluated after 13 days (100=total damage; 0=no damage), read-out: Percentage damage AMARE
# [28] = pre-emergence, 1,000 g/ha, evaluated after 13 days (100=total damage; 0=no damage), read-out: Percentage damage ALOMY
# [29] = pre-emergence, 1,000 g/ha, evaluated after 13 days (100=total damage; 0=no damage), read-out: Percentage damage IPOHE
# [30] = pre-emergence, 1,000 g/ha, evaluated after 13 days (100=total damage; 0=no damage), read-out: Percentage damage ECHCG
# [31] = post-emergence, 1,000 g/ha, evaluated after 13 days (100=total damage; 0=no damage), read-out: Percentage damage caused to weed species, SETFA
# [32] = post-emergence, 1,000 g/ha, evaluated after 13 days (100=total damage; 0=no damage), read-out: Percentage damage caused to weed species, SOLNI
# [33] = post-emergence, 1,000 g/ha, evaluated after 13 days (100=total damage; 0=no damage), read-out: Percentage damage caused to weed species, AMARE
# [34] = post-emergence, 1,000 g/ha, evaluated after 13 days (100=total damage; 0=no damage), read-out: Percentage damage caused to weed species, ALOMY
# [35] = post-emergence, 1,000 g/ha, evaluated after 13 days (100=total damage; 0=no damage), read-out: Percentage damage caused to weed species, IPOHE
# [36] = post-emergence, 1,000 g/ha, evaluated after 13 days (100=total damage; 0=no damage), read-out: Percentage damage caused to weed species, ECHCG
SMILES,"pest or weed control at 1000 g/ha [1, 13] [%]","pest or weed control at 1000 g/ha [2, 14] [%]","pest or weed control at 1000 g/ha [3, 15] [%]","pest or weed control at 1000 g/ha [4, 16] [%]","pest or weed control at 1000 g/ha [5, 17] [%]","pest or weed control at 1000 g/ha [6, 18] [%]","pest or weed control at 1000 g/ha [7, 19] [%]","pest or weed control at 1000 g/ha [8, 20] [%]","pest or weed control at 1000 g/ha [1, 25] [%]","pest or weed control at 1000 g/ha [2, 26] [%]","pest or weed control at 1000 g/ha [3, 27] [%]","pest or weed control at 1000 g/ha [4, 28] [%]","pest or weed control at 1000 g/ha [5, 29] [%]","pest or weed control at 1000 g/ha [6, 30] [%]","pest or weed control at 1000 g/ha [7, 31] [%]","pest or weed control at 1000 g/ha [8, 32] [%]","pest or weed control at 1000 g/ha [9, 33] [%]","pest or weed control at 1000 g/ha [10, 34] [%]","pest or weed control at 1000 g/ha [11, 35] [%]","pest or weed control at 1000 g/ha [12, 36] [%]",also measured
"COC(=O)c1nc(C2CC2)nc(N(C)Cc2ccc(Cl)cc2)c1Cl [Compound 5-63, 5-Chloro-4-[N-(4-chlorophenyl-methyl)-N-methyl-amino]-2-cyclo-propyl-6-methoxy-carbonylpyrimidine]",20,30,100,10,70,0,70,80,,,,,,,,,,,,,"pest or weed control at 1000 g/ha [9, 21]: 100%; pest or weed control at 1000 g/ha [10, 22]: 30%; pest or weed control at 1000 g/ha [11, 23]: 90%; pest or weed control at 1000 g/ha [12, 24]: 40%"
"C=Cc1c(NCc2ccco2)nc(-c2ccc(Cl)cc2)nc1C(=O)OC [Compound 67-125, 2-(4-Chlorophenyl)-5-ethenyl-4-(furan-2-ylmethylamino)-6-methoxycarbonyl-pyrimidine]",10,20,100,50,40,20,0,90,,,,,,,,,,,,,"pest or weed control at 1000 g/ha [9, 21]: 100%; pest or weed control at 1000 g/ha [10, 22]: 30%; pest or weed control at 1000 g/ha [11, 23]: 80%; pest or weed control at 1000 g/ha [12, 24]: 40%"
"COC(=O)c1nc(C2CC2)nc(N(C)CCc2ccccn2)c1Cl [Compound 5-228, 5-Chloro-2-cyclopropyl-6-methoxycarbonyl-4-[N-methyl-N-(2-pyrid-2-ylethyl)-amino]pyrimidine]",0,70,80,0,0,0,40,70,,,,,,,,,,,,,"pest or weed control at 1000 g/ha [9, 21]: 100%; pest or weed control at 1000 g/ha [10, 22]: 20%; pest or weed control at 1000 g/ha [11, 23]: 90%; pest or weed control at 1000 g/ha [12, 24]: 30%"
"COC(=O)c1nc(C2CC2)nc(NCc2ncccc2Cl)c1Cl [Compound 4-152, 5-Chloro-4-(3-chloropyrid-2-ylmethylamino)-2-cyclopropyl-6-methoxycarbonyl-pyrimidine]",,,,,,,,,40,80,70,20,100,70,90,90,100,50,100,80,
"COC(=O)c1nc(C2CC2)nc(NCCC(=O)OCc2ccccc2)c1Cl [Compound 4-266, 5-Chloro-2-cyclopropyl-6-methoxycarbonyl-4-[2-(phenylmethoxy-carbonyl)ethyl-amino]-pyrimidine]",,,,,,,,,60,100,100,50,100,60,70,80,100,60,100,50,
"COC(=O)c1nc(C2CC2)nc(NC(CO)C2CCOCC2)c1Cl (stereo not drawn) [Compound 4-202, 5-Chloro-2-cyclopropyl-4-(2-hydroxy-1-tetrahydropyran-4-yl-ethylamino)-6-methoxycarbonyl-pyrimidine]",,,,,,,,,30,70,60,20,100,30,30,80,100,10,50,0,
"COC(=O)c1nc(C2CC2)nc(NCC2(O)CCc3ccc(OC)cc32)c1Cl (stereo not drawn) [Compound 4-59, 5-Chloro-2-cyclopropyl-4-[(1-hydroxy-6-methoxyindan-1-yl)methylamino]-6-methoxycarbonyl-pyrimidine]",,,,,,,,,10,80,80,20,80,40,80,100,100,50,100,60,
